From ChEMBL document CHEMBL1126515 (Bioorg Med Chem Lett, 1993)

Experiments:
[1] = biological target: T1, Cholecystokinin receptor type A (Rattus norvegicus, UniProt P30551)
T1 sequence (P30551 whole entry): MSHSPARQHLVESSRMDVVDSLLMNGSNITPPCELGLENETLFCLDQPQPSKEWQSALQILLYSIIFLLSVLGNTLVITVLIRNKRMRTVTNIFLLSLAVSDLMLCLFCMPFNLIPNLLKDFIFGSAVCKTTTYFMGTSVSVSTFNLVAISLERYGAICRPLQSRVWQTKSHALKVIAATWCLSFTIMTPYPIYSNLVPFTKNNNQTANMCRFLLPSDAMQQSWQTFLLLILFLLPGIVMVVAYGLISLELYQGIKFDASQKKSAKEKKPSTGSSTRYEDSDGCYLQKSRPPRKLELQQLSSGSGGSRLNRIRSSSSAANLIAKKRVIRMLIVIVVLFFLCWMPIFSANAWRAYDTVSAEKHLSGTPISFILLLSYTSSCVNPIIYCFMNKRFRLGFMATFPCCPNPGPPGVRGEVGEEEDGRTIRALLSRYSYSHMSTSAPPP
Description: Compound measured for half-maximal inhibition of specific binding of [125I]-Bolton Hunter CCK-26-33 to CCK-A receptor in the rat pancreas.

[2] = biological target: T2, Gastrin/cholecystokinin type B receptor (Mus musculus, UniProt P56481); test: Compound measured for half-maximal inhibition of specific binding of [125I]bolton Hunter CCK-26-33 to CCK-B receptor in the mouse cerebral cortex.; type: tissue-based
T2 sequence (P56481 whole entry): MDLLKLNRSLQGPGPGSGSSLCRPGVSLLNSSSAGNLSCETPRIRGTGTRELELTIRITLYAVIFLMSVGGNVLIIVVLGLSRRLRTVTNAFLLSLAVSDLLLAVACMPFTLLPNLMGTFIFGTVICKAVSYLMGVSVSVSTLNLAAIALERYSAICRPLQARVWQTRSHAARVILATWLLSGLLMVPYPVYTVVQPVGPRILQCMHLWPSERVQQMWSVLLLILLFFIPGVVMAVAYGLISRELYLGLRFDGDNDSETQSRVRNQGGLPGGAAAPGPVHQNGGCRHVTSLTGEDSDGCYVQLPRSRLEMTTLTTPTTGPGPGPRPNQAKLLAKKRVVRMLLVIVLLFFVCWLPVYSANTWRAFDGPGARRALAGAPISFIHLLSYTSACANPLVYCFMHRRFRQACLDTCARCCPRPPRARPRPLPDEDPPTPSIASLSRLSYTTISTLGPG

| Structure (SMILES) | IC50 [1] [nM] | IC50 [2] [nM] |
| --- | --- | --- |
| C[C@](Cc1c[nH]c2ccccc12)(NC(=O)OC1C2CC3CC(C2)CC1C3)C(=O)N[C@H](CC(=O)O)Cc1ccccc1 (some centres undefined) | 30 | – |
| O=C(O)C[C@@H](Cc1ccccc1)NC(=O)/C(=C/c1c[nH]c2ccccc12)NC(=O)OC1C2CC3CC(C2)CC1C3 (some centres undefined) | 3.7 | 99 |
| O=C(O)C[C@@H](Cc1ccccc1)NC(=O)C(=Cc1c[nH]c2ccccc12)NC(=O)OC1C2CC3CC(C2)CC1C3 (some centres undefined) | 3.9 | 60 |

The next lines start with the values.

| IC50 [1] [nM] | IC50 [2] [nM] | Structure (SMILES) |
| --- | --- | --- |
| 18 | 0.3 | O=C(O)C[C@H](Cc1ccccc1)NC(=O)C(=Cc1c[nH]c2ccccc12)NC(=O)OC1C2CC3CC(C2)CC1C3 (some centres undefined) |
| 550 | 13 | O=C(O)C[C@H](Cc1ccccc1)NC(=O)/C(=C/c1c[nH]c2ccccc12)NC(=O)OC1C2CC3CC(C2)CC1C3 (some centres undefined) |
